# According to US20040033273A1, “Withasol and methods of use” (AyurCore, Inc., priority 2001, published 2004):
# Tested on: BALB/c mouse implanted with ascitic sarcoma (S-180), CP treated
# Settings: for Hb / Platelet Count (×10^3/mcl) / RBC Count (×10^6/mcl) / WBC Difference Count (%) Lymphocytes / WBC Difference Count (%) Polymorph / WBC Total Count (×10^3/mcl): CP +: CP 150 mg/kg ip day 11, coded drug 100 mg/kg (vehicle for CP alone) po day 1-15, blood day 16; for Difference in Weight (g) from Day 1 to 16: CP +: S-180 bearing antigen-challenged mice, CP 150 mg/kg ip day 11, coded drug 100 mg/kg (vehicle for CP alone) po day 1-15; for change in body weight / change in HA antibody titers / change in HL antibody titers / change in hemoglobin content / change in platelet counts / change in red cell counts / change in white cell differential counts / change in white cell total counts: vs group IV (tumor +, CP +, vehicle), drug po day 1-15, CP 150 mg/kg ip day 11, ANOVA; for change in HA antibody titers / change in HL antibody titers / change in hemoglobin content / change in platelet counts / change in red cell counts / change in white cell differential counts / change in white cell total counts: day 16
# [1] = Tumor +, CP +: CP 150 mg/kg ip day 11, coded drug 100 mg/kg (vehicle for CP alone) po day 1-15, serum day 16, mean +/- SD
# [2] = tumor-bearing CP-treated mice, vs CP alone
Structure (SMILES),"Hb (Tumor +, mean +/- SD)","Platelet Count (×10^3/mcl) (Tumor +, mean +/- SD)","RBC Count (×10^6/mcl) (Tumor +, mean +/- SD)","WBC Difference Count (%) Lymphocytes (Tumor +, mean +/- SD)","WBC Difference Count (%) Polymorph (Tumor +, mean +/- SD)","WBC Total Count (×10^3/mcl) (Tumor +, mean +/- SD)",CF Titre (Log2) [1],HA Titre (Log2) [1],"Difference in Weight (g) from Day 1 to 16 (Tumor +, mean +/- SD)",effect on CP-induced immunosuppression / immunostimulatory activity (conclusion) [2],effect on CP-induced myelosuppression (conclusion) [2],other activity indicated (conclusion) [2],change in body weight,change in HA antibody titers,change in HL antibody titers,change in hemoglobin content,change in platelet counts,change in red cell counts,change in white cell differential counts,change in white cell total counts
"O=C1O[C@H]([C@@H](O)CO)C(O)=C1O [Drug T, Vitamin C]",15.37 ± 1.481 g/dL,822.67 +/− 234.142 ×10^3/mcl,4.25 +/− 0.661 ×10^6/mcl,63.30 +/− 6.266%,36.70 +/− 6.266%,7.13 +/− 0.949 ×10^3/mcl,5.67 +/− 0.516 Log2,5.33 +/− 0.516 Log2,-2.67 ± 1.751 g,protective effect on CP-induced myelo and immunosuppression,protective effect on CP-induced myelo and immunosuppression,mild hematinic activity,no significant change,significantly increased,significantly increased,significantly increased,No significant change,No significant change,no significant change,significantly increased
O=S(=O)(O)CCS [Mesna],14.08 ± 1.689 g/dL,608.83 +/− 239.813 ×10^3/mcl,4.12 +/− 0.609 ×10^6/mcl,62.42 +/− 9.902%,37.58 +/− 9.902%,3.67 +/− 1.218 ×10^3/mcl,–,2.17 +/− 0.408 Log2,-2.5 ± 1.049 g,no effect on body weight and CP-induced myelo and immunosuppression,no effect on body weight and CP-induced myelo and immunosuppression,–,no significant change,no significant change,no significant change,no significant change,no significant change,no significant change,no significant change,no significant change
